Reference: paper PMC11303535 (Nature Communications, 2024)

How the values were obtained:
TRPV1 = conditions: CHL at concentrations up to 250 μM; cited from earlier work
hTRPV1 = hTRPV1 (Homo sapiens, UniProt Q8NER1); assay: FLIPR calcium influx assay, hTRPV1 WT in HEK293T; type: cell-based; conditions: 3.33 µM capsaicin
hTRPV1 S512F = hTRPV1 S512F (Homo sapiens, UniProt Q8NER1, S512F); assay: FLIPR calcium influx assay, hTRPV1 S512F mutant; type: cell-based; conditions: also unresponsive to pH
Chain of hTRPV1 S512F (Q8NER1 whole entry S512F): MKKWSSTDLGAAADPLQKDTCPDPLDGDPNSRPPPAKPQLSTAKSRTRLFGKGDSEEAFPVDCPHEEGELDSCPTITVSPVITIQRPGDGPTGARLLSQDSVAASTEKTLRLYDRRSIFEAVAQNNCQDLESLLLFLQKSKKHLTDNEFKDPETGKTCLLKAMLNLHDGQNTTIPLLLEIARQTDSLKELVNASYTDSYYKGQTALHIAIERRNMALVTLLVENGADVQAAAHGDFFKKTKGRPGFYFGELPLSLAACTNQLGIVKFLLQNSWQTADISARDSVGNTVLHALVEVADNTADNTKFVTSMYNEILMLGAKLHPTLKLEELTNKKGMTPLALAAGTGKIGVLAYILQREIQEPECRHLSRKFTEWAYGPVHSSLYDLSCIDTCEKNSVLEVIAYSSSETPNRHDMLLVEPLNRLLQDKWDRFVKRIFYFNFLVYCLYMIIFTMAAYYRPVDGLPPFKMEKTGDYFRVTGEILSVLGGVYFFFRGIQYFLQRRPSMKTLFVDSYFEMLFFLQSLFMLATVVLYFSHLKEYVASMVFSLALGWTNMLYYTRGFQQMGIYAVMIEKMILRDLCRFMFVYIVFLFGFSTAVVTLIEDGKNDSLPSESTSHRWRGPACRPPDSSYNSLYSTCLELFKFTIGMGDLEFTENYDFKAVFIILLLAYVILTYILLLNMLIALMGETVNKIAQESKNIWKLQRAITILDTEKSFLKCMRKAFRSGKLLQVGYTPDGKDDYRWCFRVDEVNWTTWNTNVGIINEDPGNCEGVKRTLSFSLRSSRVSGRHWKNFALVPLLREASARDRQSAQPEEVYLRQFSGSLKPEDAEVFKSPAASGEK

Chain of hTRPV1 (Q8NER1 whole entry): as the sequence (Q8NER1 whole entry S512F) above, with F512S counted along it

| activation of hTRPV1 by capsaicin (hTRPV1) | response of mutant to capsaicin (hTRPV1 S512F) | SMILES | inhibition of TRPV1 currents evoked by 2-APB (TRPV1) |
| --- | --- | --- | --- |
|  |  | CC(C)CCC[C@@H](C)[C@H]1CC[C@H]2[C@@H]3CC=C4C[C@@H](O)CC[C@]4(C)[C@H]3CC[C@]12C [CHL, cholesterol] | not inhibited |
| 80–90% | unresponsive | COc1cc(CNC(=O)CCCC/C=C/C(C)C)ccc1O [capsaicin] |  |
